Results: patent US11518758B2, “Heteroarylaminopyrimidine amide autophagy inhibitors and methods of use thereof” (Deciphera Pharmaceuticals, LLC, priority 2019, dated 2022)

Assays:
Type in all cases: cell-based, human
[1] = test system: phospho-Serine 318 ATG13 (pATG13), ULK kinase substrate, in A549 (KRAS mutant) cells; experiment: pATG13 levels of mutant KRas A549 cells after treatment with ULK inhibitors in combination with trametinib (ELISA); settings: with 250 nM trametinib
Summary of the method: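 A549 cells grown overnight were treated overnight at 37 °C with a dose response of test compound plus 250 nM trametinib (final) or DMSO. Lysates were assayed by sandwich ELISA, with total ATG13 capture and biotinylated pS318-ATG13 detection read at 450 nm minus 540 nm, giving % phosphorylation against control and IC50.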

[2] = test system: phospho-Serine 318 ATG13 (pATG13) in T24 cells; experiment: pATG13 levels of mutant HRas T24 cells after treatment with ULK inhibitors in combination with trametinib (ELISA); settings: with 250 nM trametinib
Experimental: Example 181. pATG13 Levels of Mutant HRas T24 Cells after Treatment with ULK Inhibitors in Combination with Trametinib
(§1) T24 human urinary bladder cancer cells (25000 cells/well) were added to a 96-well tissue-culture treated plate in 100 μL of pre-warmed DMEM medium supplemented with 10% characterized fetal bovine serum (Invitrogen, Carlsbad, Calif.), 100 units/mL penicillin G, and 100 μg/mL streptomycin and allowed to grow overnight at 37° C., 5% CO2, and 95% humidity. The following day, 100 μL of media containing trametinib or DMSO as a control was added to wells. The final concentration of trametinib in wells was 250 nM. A dose response of a test compound (0.5 μL per well) was added. DMSO (0.5 μL) was added to control wells. The plate was briefly shaken to mix wells and then incubated at 37° C. overnight. The next day, the media was aspirated and cells were washed with Dulbecco's Phosphate Buffered Saline (Gibco). Cells were lysed using MPER lysis buffer (Pierce, Rockford, Ill.) containing Halt Phosphatase and Protease Inhibitors (Pierce, Rockford, Ill.) and Phosphatase inhibitor cocktail 2 (Sigma, St. Louis, Mo.) at 4° C. for 10 minutes with shaking.
(§2) Cellular levels of phospho-Serine 318 ATG13 (pATG13) were measured via an ELISA method. Total ATG13 Antibody (Cell Signaling Cat #13273) was used to coat the wells. The plate was incubated at 4° C. overnight and washed with ELISA wash buffer (Biolegend Cat #421601). The wells were then blocked with assay diluent (Biolegend Cat #421203) for 1 hour at room temperature. Plate wells were washed with ELISA wash buffer. Cell lysate was added to wells and incubated at room temperature for 2 hours. Plate wells were washed with ELISA wash buffer. Biotinylated pS318-ATG13 antibody (Rockland Immunochemicals Cat #600-401-C49) was diluted in assay diluent and added to each well and incubated at room temperature for 1 hour. Plate wells were washed with ELISA wash buffer. Streptavidin linked to horseradish peroxidase (Thermo Fisher Cat #21140) was diluted in assay diluent and added to each well and incubated at room temperature for 1 hour. Plate wells were washed with ELISA wash buffer. High sensitivity TMB substrate (Biolegend Cat #421101) was added to each well and incubated at room temperature for 20 minutes. The reaction was stopped with 2N Sulfuric Acid. The plate was analyzed at on a plate reader measuring absorbance at 450 nm and 540 nm (background). Signal was calculated by first subtracting the background absorbance at 540 nm from the absorbance at 450 nm for each well. Next, the background corrected absorbance at 450 nm from blank wells was subtracted from test wells. Data was compared to control wells to determine % ATG13 phosphorylation. GraphPad Prism was used to calculate IC50 values.

[3] = test system: phospho-Serine 318 ATG13 (pATG13) in A375 cells; experiment: pATG13 levels of mutant BRAF A375 cells after treatment with ULK inhibitors in combination with trametinib (ELISA)
Experimental: Example 180. pATG13 Levels of Mutant BRAF A375 Cells after Treatment with ULK Inhibitors in Combination with Trametinib
as §1, with “A375” for “T24”, “malignant melanoma” for “urinary bladder”, “(20000” for “(25000”
as §2

[4] = test system: phospho-Serine 318 ATG13 (pATG13) in MiaPaCa-2 cells; experiment: pATG13 levels of mutant KRas MiaPaCa-2 cells after treatment with ULK inhibitors in combination with trametinib (ELISA)
Experimental: Example 178. pATG13 Levels of Mutant KRas MiaPaCa-2 Cells after Treatment with ULK Inhibitors in Combination with Trametinib
MiaPaCa-2 human pancreatic cancer cells (10000 cells/well) were added to a 384-well tissue-culture treated plate in 50 μL of pre-warmed DMEM medium supplemented with 10% characterized fetal bovine serum (Invitrogen, Carlsbad, Calif.), 100 units/mL penicillin G, 100 μg/mL streptomycin, and 2.5% Horse Serum and allowed to grow overnight at 37° C., 5% CO2, and 95% humidity. The following day, 10 μL of media containing trametinib or DMSO as a control was added to wells. The final concentration of trametinib in wells was 250 nM. A dose response of a test compound (0.6 μL per well) was added. DMSO (0.6 μL) was added to control wells. The plate was briefly shaken to mix wells and then incubated at 37° C. overnight. The next day, the media was aspirated and cells were washed with Dulbecco's Phosphate Buffered Saline (Gibco). Cells were lysed using MPER lysis buffer (Pierce, Rockford, Ill.) containing Halt Phosphatase and Protease Inhibitors (Pierce, Rockford, Ill.) and Phosphatase inhibitor cocktail 2 (Sigma, St. Louis, Mo.) at 4° C. for 10 minutes with shaking.
as §2

| IC50 [1] | IC50 [2] | IC50 [3] | IC50 [4] | Compound |
| --- | --- | --- | --- | --- |
| 0.1 to 0.3 µM | 0.01 to 0.1 µM | 0.01 to 0.1 µM | 0.01 to 0.1 µM | Cc1nn(C2CCN(C)CC2)cc1Nc1ncc(C(F)(F)F)c(NCCCN2CCOCCC2=O)n1 [Example 127] |
| 0.1 to 0.3 µM |  | 0.1 to 0.3 µM | 0.1 to 0.3 µM | CCc1nn(C2CCN(C)CC2)cc1Nc1ncc(Br)c(NCCCN2CCCCC2=O)n1 [Example 53] |
| > 0.6 µM | 0.1 to 0.3 µM |  | 0.1 to 0.3 µM | Cc1nn(C2CCN(C)CC2)cc1Nc1ncc(Cl)c(NCCCN2CCCOCC2=O)n1 [Example 105] |
| 0.1 to 0.3 µM | 0.01 to 0.1 µM |  | 0.01 to 0.1 µM | CN(C)CCn1cc(Nc2ncc(C(F)(F)F)c(NCCCN3CCCCC3=O)n2)cn1 [Example 32] |
| 0.1 to 0.3 µM | 0.1 to 0.3 µM |  | 0.1 to 0.3 µM | Cc1nn(CCCN2CCOCC2)cc1Nc1ncc(C(F)(F)F)c(NCCCN2CCCCCC2=O)n1 [Example 100] |
| 0.01 to 0.1 µM |  |  | 0.01 to 0.1 µM | Cc1nn(C2CCN(C)CC2)cc1Nc1ncc(C(F)(F)F)c(NCCCN2CCCCCC2=O)n1 [Example 79] |
| 0.01 to 0.1 µM | 0.01 to 0.1 µM | 0.01 to 0.1 µM |  | Cc1nn(C2CCN(C)CC2)cc1Nc1ncc(C(F)(F)F)c(NCCCN2CCCCC2=O)n1 [Example 8] |
| 0.3 to 0.6 µM |  |  | 0.1 to 0.3 µM | Cc1nn(CCN(C)C)cc1Nc1ncc(C(F)(F)F)c(NCCCN2CCCCC2=O)n1 [Example 21] |
| 0.01 to 0.1 µM |  |  | 0.01 to 0.1 µM | CC(C)N1CCC(n2cc(Nc3ncc(C(F)(F)F)c(NCCCN4CCCCC4=O)n3)cn2)CC1 [Example 6] |
| 0.1 to 0.3 µM |  | 0.01 to 0.1 µM | 0.01 to 0.1 µM | Cc1nn([C@H]2CCN(C)C2)cc1Nc1ncc(Br)c(NCCCN2CCCCC2=O)n1 [Example 61] |
| 0.1 to 0.3 µM |  |  | 0.1 to 0.3 µM | CCN1CCC(n2cc(Nc3ncc(C(F)(F)F)c(NCCCN4CCCOCC4=O)n3)c(C)n2)CC1 [Example 107] |
| 0.01 to 0.1 µM | 0.01 to 0.1 µM | 0.01 to 0.1 µM | 0.01 to 0.1 µM | Cc1nn(C2CCN(C(C)C)CC2)cc1Nc1ncc(C(F)(F)F)c(NCCCN2CCCCC2=O)n1 [Example 15] |
| 0.1 to 0.3 µM | 0.1 to 0.3 µM | 0.01 to 0.1 µM |  | Cc1nn([C@@H]2CCN(C)C2)cc1Nc1ncc(C(F)(F)F)c(NCCCN2CCCCC2=O)n1 [Example 18] |
| 0.1 to 0.3 µM |  |  | 0.01 to 0.1 µM | Cc1nn(C2CCN(C)CC2)cc1Nc1ncc(C(F)(F)F)c(NCCCN2CCCOCC2=O)n1 [Example 102] |
| 0.1 to 0.3 µM |  |  | 0.01 to 0.1 µM | Cc1nn([C@@H]2CCN(C)C2)cc1Nc1ncc(C(F)(F)F)c(NCCCN2CCCOCC2=O)n1 [Example 106] |
| 0.1 to 0.3 µM |  |  | 0.01 to 0.1 µM | CCN1CC[C@H](n2cc(Nc3ncc(Br)c(NCCCN4CCCCC4=O)n3)c(C)n2)C1 [Example 64] |
| 0.1 to 0.3 µM |  |  | 0.01 to 0.1 µM | CCN1CCC(n2cc(Nc3ncc(C(F)(F)F)c(NCCCN4CCOCCC4=O)n3)c(C)n2)CC1 [Example 130] |
| 0.3 to 0.6 µM |  |  | 0.1 to 0.3 µM | Cc1nn(C2CCN(C(C)C)CC2)cc1Nc1ncc(C(F)(F)F)c(NCCCN2CCCOCC2=O)n1 [Example 108] |
| 0.3 to 0.6 µM | 0.1 to 0.3 µM | 0.1 to 0.3 µM | 0.01 to 0.1 µM | Cc1nn(C2CCN(C(C)C)CC2)cc1Nc1ncc(C(F)(F)F)c(NCCCN2CCCOC2=O)n1 [Example 68] |
| 0.3 to 0.6 µM |  |  | 0.1 to 0.3 µM | Cc1nn(C2CCN(C(C)C)CC2)cc1Nc1ncc(C(F)(F)F)c(NCCCN2CCOCCC2=O)n1 [Example 131] |
